Patent publication US8630703B2, “Treatment utilizing hydrophobic weak bases chemotherapeutic agents and illumination” (Technion Research & Development Foundation Limited, priority 2011, dated 2014)

What was measured:
A549/K1.5 cells [1] = assay: Live cell fluorescent imaging (lysosomal localization and photodestruction); assay type: cell-based, Human; conditions: for effect on lysosomal accumulation of C-1330: pre-incubation 10 mM ammonium chloride 30 min or 1 μM bafilomycin A1 60 min
Description: (§1) Lysosomes and mitochondria were stained by incubating the cells 100 nM LysoTracker® Red or 100 nM MitoTracker® Red, respectively, for 1 hour. For subcellular localization of C-1330, cells were also stained with 10 μM C-1330 for 30 minutes.
(§2) Nuclear staining was performed prior to fluorescence imaging by replacing the growth medium with medium containing 2 μg/ml Hoechst 33342, followed by incubation for 10 minutes. Prior to nuclear staining, A549/K1.5 cells were incubated for 1 hour with 10 μM fumitremorgin C (FTC) to prevent efflux of Hoechst 33342 by ABCG2.
(§3) Live cell fluorescent imaging was performed using an Axiovert 200 inverted fluorescence microscope (Carl Zeiss) equipped with a digital camera. […] Light intensity was maintained at 12.5% of the maximum. The magnification used was ×630.
(§4) Cells were pre-incubated with 10 mM ammonium chloride for 30 minutes or with 1 μM bafilomycin A1 for 60 minutes, prior to being incubated with 10 μM C-1330 for 30 minutes as described hereinabove. Ammonium chloride and bafilomycin A1 remained present during the incubation with C-1330.
A549/K1.5 cells were incubated with 10 μM doxorubicin for 30 minutes, and then observed and illuminated (at 470 nm) by live cell fluorescent imaging as described in the Materials and Methods section. Upon illumination, the cells were photographed every second, in order to observe changes in the cells over time.

[2] = test system: chicken chorioallantoic membrane (CAM) vasculature; assay: Chorioallantoic membrane (CAM) model of photodynamic therapy; assay type: in vivo; conditions: for vascular effect in illuminated area: 420 nm
Description: Fertilized chicken eggs (Animalco AG) were labeled and transferred into a hatching incubator with a relative air humidity of 65% and a temperature of 37° C. The incubator was equipped with an automatic fan (Savimat). On embryonic development day (EDD) 3, a hole of approximately 3 mm in diameter was opened in the eggshell above the air pouch of the egg and covered with Parafilm® wrapping film (Pechiney) to prevent dehydration and possible infections. The eggs were then returned to the incubator in a static position until use. On EDD 11, the hole in the shell was extended to a diameter of approximately 3 cm in order to provide better access to the chorioallantoic membrane (CAM) during experiments.
Eggs were placed under an Eclipse 600 FN epi-fluorescence microscope equipped with a Plan Apo 4/0.2, working distance 20 objective (Nikon). Microscopic observation and illumination of a region of the CAM was performed as described previously [Lim et al., Photochem Photobiol 2010, 86:397-402; Lim et al., J Med Chem 2010, 53:2865-2874; Nowak-Sliwinska et al., Angiogenesis 2010, 13:281-292]. Illumination was provided by a 100 W high pressure Hg-arc lamp. Light doses were adjusted with neutral density filters and measured with a calibrated Field-Master GS power meter (Coherent Inc.). Fluorescence images were acquired with an F-view II 12-bit monochrome Peltier-cooled digital CCD camera driven with analySIS DOCU software (Soft Imaging System GmbH).
For excitation and detection of imidazoacridinones (IAs) or sunitinib, the microscope was equipped with a filter set (Nikon) characterized by excitation wavelengths of 420±20 nm and emission wavelengths of >470 nm,
After the treatment the eggs were numbered, covered and returned to the incubator. Each treatment group included 5 eggs.
Chorioallantoic membranes (CAMs) were intravenously injecting chorioallantoic membranes with 20 μl of a solution of FITC-dextran (20 kDa, 25 mg/ml). Fluorescence angiography was then performed using light from an Hg-arc lamp and light filters (Nikon) which provided excitation wavelengths of 470±20 nm and emission wavelengths of >520 nm for observing the fluorescence. In order to increase the quality of the recorded angiographs, a light absorber, in the form of India ink, was injected (30 μl) into the extra-embryonic cavity. The purpose of this second injection was to decrease the influence of the CAM auto-fluorescence background, which changes rapidly with time due to the embryo's movement. The India ink was filtered shortly before injection, using a sterile cellulose acetate membrane with 0.2 μm pores (Renner GmbH).
Photodynamic therapy (PDT) was performed at embryo development day (EDD) 11, at which stage the CAM is fully developed and contains a vessel network with a regular capillary plexus. The imidazoacridinones were intravenously injected into the main vessel of the CAM through a 33-gauge needle fitted to a 100 μl syringe (Hamilton), at a concentration of 1 mg/ml and a volume of 100 μl, which corresponds to a dose of 100 μg, or approximately 10 mg/kg embryo body weight.
One minute after injection, a region of the CAM which contained vessels of diameters in a range of 5 to 70 μm was illuminated (420±20 nm) at a light dose of 20 J/cm^2 and an irradiance of […]. […]
The illuminated area was 0.02 cm^2, as delimited by an optical diaphragm. The fluorescence of sunitinib was visible in the vasculature of the CAMs prior to PDT.

A549 cells [3] = assay: XTT cytotoxicity assay with and without illumination
Description: (§5) Parental cells and their MDR (multi-drug resistant) sub-lines were seeded in 96-well plates (2×10^4 cells/well in 90 μl growth medium/well). […] Following incubation for 2 hours, the drug-containing medium was replaced by drug-free medium. The cells were then placed on an illuminator plate (Model 460, thin line series, S&S X-Ray Products Inc., Brooklyn, N.Y.) for 1 hour, thereby achieving a light dose of 5 J/cm^2 white light. After illumination, plates were further incubated for an additional 24 hours.
Cell viability was determined using an XTT (2,3-bis-(2-methoxy-4-nitro-5-sulfophenyl)-2H-tetrazolium-5-carboxanilide) Cell Proliferation Kit (Biological Industries). […] Results are presented as mean values of at least three independent experiments.

[4] = test system: Human A2780 ovarian carcinoma tumors; assay: PDT of tumors transplanted onto CAM; assay type: in vivo; conditions: 12 μg per embryo i.v., 420 nm 34 J/cm^2, two rounds; vs C-1379 without illumination
Description: Human A2780 ovarian carcinoma cells were used to establish tumor xenografts in the CAM. Tumor spheroids were grown by a hanging drop technique, resulting in spheroids with a predefined size. A2780 cells were suspended in medium containing 20% Methocel™ (Sigma-Aldrich, St. Louis, USA), and 50 μl drops (1×10^6 cells/drop) were dispensed on the internal part of the lid of a Petri dish. After 24 hours, spheroids were harvested and placed on the CAM at embryonic development day (EDD) 7. Two transplanted human A2780 ovarian carcinoma tumor spheroids, containing 10^6 cells, were grown on a single CAM, and 300 μM C-1379 was injected intravenously at a concentration of 12 μg per embryo at EDD 11.
Prior to further treatment, both tumors were imaged by imidazoacridinone (C-1379) fluorescence angiography, as described hereinabove. One minute after C-1379 administration, one of the tumors was illuminated at a wavelength of 420 nm (34 J/cm^2, 70 mW/cm^2). 24 hours later, both tumors were visualized by FITC-dextran angiography, as described hereinabove, and by standard photography. Immediately thereafter, a second round of C-1379 intravenous administration and PDT (on one of the tumors) was performed as previously. The CAM was then incubated for two more days. […]

A549/K1.5 cells [5] = assay: XTT cytotoxicity assay with and without illumination; assay type: cell-based, Human; conditions: A549/K1.5
Description: Human non-small cell lung cancer A549 cells and their ABCG2-overexpressing MDR (multi-drug resistant) A549/K1.5 sub-line; ovarian carcinoma cell line 2008 and its stable MRP1-transfectant 2008/MRP1; and human non-small lung cancer cell line SW1573 and its ABCB1-overexpressing subline SW1573/2R160) were maintained in RPMI-1640 medium supplemented with 10% fetal bovine serum, 2 mM glutamine, 100 μg/ml penicillin and streptomycin (Biological Industries, Beth-Haemek, Israel) in a humid atmosphere containing 5% CO2 at 37° C.
as §5
Cell viability was determined using an XTT (2,3-bis-(2-methoxy-4-nitro-5-sulfophenyl)-2H-tetrazolium-5-carboxanilide) Cell Proliferation Kit (Biological Industries). The drug concentrations required to inhibit cell growth by 50% (i.e., IC50 values) were determined from the cell survival curves in the absence and in the presence of illumination. Results are presented as mean values of at least three independent experiments.

[6] = Absorption, emission and excitation spectra; assay type: physicochemical; conditions: aqueous 0.9% NaCl
Description: Stock solutions containing sunitinib or the imidazoacridinones (IAs) C-1375 and C-1379 in 100% dimethyl sulfoxide were diluted with aqueous 0.9% NaCl solution under continuous stirring. Absorption spectra were recorded with a two-beam Cary 500 UV-VIS-NIR spectrophotometer (Varian) in 1 cm long Suprasil® quartz cuvettes (Hellma), at an average scan speed of 600 nm/minute, at 20° C. The steady state emission and excitation spectra were recorded with an LS 50B luminescence spectrometer (Perkin-Elmer).

A549 cells [7] = assay: Live cell fluorescent imaging (lysosomal localization and photodestruction); assay type: cell-based, Human; conditions: pre-incubation 10 mM ammonium chloride 30 min or 1 μM bafilomycin A1 60 min
Description: as §1, §2, §3, §4
Monolayers of A549 cells were grown in glass-bottom plates and were washed in growth medium. The medium was then replaced with a special isotonic balanced salt solution lacking or containing either N,N′-dimethylthiourea (DMTU), a potent hydroxyl radical and hydrogen peroxide scavenger, L-histidine, a hydroxyl radical and singlet oxygen radical (^1O2) scavenger, or sodium azide, a singlet oxygen radical scavenger. The salt solution consisted of 10 mM HEPES pH 7.4, 120 mM NaCl, 5 mM KCl, 1 mM CaCl2, 1 mM MgCl2, and 25 mM glucose. After incubation for 1 hour, C-1330 was added to the aforementioned solution buffer for an additional 30 minutes, during which the scavengers remained present, in order to load lysosomes. The cells were then examined by fluorescent imaging as described hereinabove.

A549 cells [8] = assay: Lysosome quantification by LysoTracker Red fluorescence; assay type: cell-based, Human; conditions: for increase in lysosomal fluorescence compared to untreated cells: 20 μM
Description: A549 cells were seeded in 96-well plates at a concentration of 500 cells/well for the 48 hour chloroquine treatment, or at a concentration of 1000 cells/well for the 24 hour chloroquine treatment, in a total volume of 100 μl of medium per well. Following an overnight incubation, chloroquine was then added at the indicated concentrations for 24 or 48 hours. Lysosomes were then stained with LysoTracker® Red, detected by fluorescent imaging as described hereinabove, and quantified using EZQuant software.

CCN(CC)CCNc1ccc2ncn3c4ccc(O)cc4c(=O)c1c23 [C-1311]
lysosomal photodestruction on co-treatment with ABCG2 inhibitor (A549/K1.5 cells [1]; MDR cells, 20 μM C-1311 + 10 μM fumitremorgin C, 2 hours, illumination): intense lysosomal photodestruction

CCN(CC)CCCNc1ccc2nc(C)n3c4ccc(OC)cc4c(=O)c1c23 [C-1379]
vascular effect in illuminated area ([2]; 1 μg/embryo i.v., 20 J/cm^2, 24 hours after illumination): massive occlusion of the capillary network
vascular effect in illuminated area ([2]; 100 μg/embryo i.v., 20 J/cm^2, 1 minute after injection, 24 hours after treatment): vaso-occlusion within the illuminated area
Fold sensitization (A549 cells [3]; control vs illumination): 32
Survival at 3000 nM Control (A549 cells [3]; no illumination): 60 ± 1%
LD50 Control (A549 cells [3]; no illumination, 2 h drug, XTT 24 h later): 6.349 ± 0.867 µM
LD50 Illumination (A549 cells [3]; white light 1 hour (5 J/cm^2)): 199 ± 31 nM
Survival at 3000 nM Illumination (A549 cells [3]; white light illumination): 2 ± 0.3%
effect on tumor growth [4]: inhibition of tumor growth
effect on tumor vasculature [4]: vaso-occlusion and destruction of tumor vasculature
Fold sensitization (A549/K1.5 cells [5]; control vs illumination): 20
LD50 Control (A549/K1.5 cells [5]; no illumination): 15.192 ± 0.58 µM
Survival at 3000 nM Control (A549/K1.5 cells [5]; no illumination): 82 ± 4%
LD50 Illumination (A549/K1.5 cells [5]; white light 1 hour (5 J/cm^2)): 747 ± 45 nM
Survival at 3000 nM Illumination (A549/K1.5 cells [5]; white light illumination): 7 ± 0.1%
Peak absorption [6]: 443 nm
Peak emission [6]: 554 nm
Peak excitation [6]: 447 nm

Cl.N [ammonium chloride]
effect on lysosomal accumulation of C-1330 (A549/K1.5 cells [1]; A549/K1.5): completely abolished
effect on lysosomal accumulation of C-1330 (A549 cells [7]): completely abolished

CO/C1=C\C(C)=C\[C@@H](C)[C@@H](O)[C@@H](C)C/C(C)=C/C=C/[C@H](OC)[C@@H]([C@@H](C)[C@@H](O)[C@H](C)[C@@]2(O)C[C@@H](O)[C@H](C)[C@@H](C(C)C)O2)OC1=O [bafilomycin A1]
effect on lysosomal accumulation of C-1330 (A549/K1.5 cells [1]; A549/K1.5): completely abolished
effect on lysosomal accumulation of C-1330 (A549 cells [7]): completely abolished

CCN(CC)CCCC(C)Nc1ccnc2cc(Cl)ccc12 (stereo not shown) [chloroquine]
increase in lysosomal fluorescence compared to untreated cells (A549 cells [8]; 24 hours): 8.4 fold
increase in lysosomal fluorescence compared to untreated cells (A549 cells [8]; 48 hours): 21.7 fold
increase in the lysosomes, dose relation (A549 cells [8]; 20, 50 or 100 μM, 24 hours): dose-dependent

COc1cccc2c1C(=O)c1c(O)c3c(c(O)c1C2=O)C[C@@](O)(C(=O)CO)C[C@@H]3O[C@H]1C[C@H](N)[C@H](O)[C@H](C)O1 [doxorubicin]
lysosomal photodestruction upon illumination (A549/K1.5 cells [1]; A549/K1.5, 10 μM, 470 nm, 20 seconds of illumination): nearly all of the lysosomes had ruptured

CCN(CC)CCNC(=O)c1c(C)[nH]c(/C=C2\C(=O)Nc3ccc(F)cc32)c1C [sunitinib, reference compound]
location of drug fluorescence in CAM ([2]; administered intravenously): visible within the vasculature
location of drug fluorescence in CAM ([2]; administered topically): visible exclusively outside the vasculature
